Reference: patent US12458616B2, “Levodopa dosing regimen” (Amneal Pharmaceuticals, LLC, priority 2020, dated 2025)
Like-named read-outs stand apart in the source and are kept apart here.

How the values were obtained:
[1] = Example 12 pharmacokinetics in healthy subjects: fed, sprinkled on applesauce, fasted; type: in vivo, human; conditions: Example 7 capsule 350 mg LD/87.5 mg CD; for Tmax: median (min-max); for AUC(0-t): hour 0 to 24 hours; for Cmax: po, single oral dose
Protocol: The dosage forms described in Example 7 were administered to 27 healthy male and female subjects between the ages of 18 and 55 with a body weight of at least 55 kg and body mass index of 18.5 to 30.0 kg/m^2 in a single site, open label, single dose, 3-treatment, 3-period, crossover study. The subjects were fasted overnight for at least 10 hours and received a single dose of 350 mg LD and 87.5 CD for each treatment separated by a 6 to 7 day washout period.
No additional food was allowed for at least 4 hours post dose.
Treatment B comprised the oral administration of one capsule prepared in accordance with Example 7 containing 350 mg LD and 87.5 mg CD wherein the contents of the capsule were sprinkled onto 1 tablespoon of applesauce. No additional food was allowed for at least 4 hours post dose.
Treatment C comprised the oral administration of one capsule prepared in accordance with Example 7 containing 350 mg LD and 87.5 mg CD with 240 mL of water. No food was allowed for at least 4 hours post dose.
For Treatments A and C the subjects were instructed to swallow the capsule intact and not to chew, divide or crush the tablet.
For Treatment B, the subjects were instructed to consume all the applesauce without crushing or chewing the beads.
Whole blood samples were taken prior to dosing and at 0.5, 1, 1.5, 2, 2.5, 3, 4, 5, 6, 7, 8, 10, 12, 16 and 24 hours post dose. The plasma samples were analyzed for concentrations of CD and LD by a validated liquid chromatography-tandem mass spectrometry (LC-MS/MS) method. Peak plasma (Cmax), area under the plasma concentration-time curve (AUCt and AUC∞), and time to maximum concentration (Tmax) for LD and CD were evaluated. The mean pharmacokinetic parameters are showing in the following table and in FIGS. 20 and 21.

[2] = cited from earlier work
[3] = both sexes, human, plasma, oral, Fasted, mean ± SD
[4] = both sexes, human, plasma, oral, Fasted, read-out: Tmax
[5] = both sexes, human, plasma, oral, Fed, mean ± SD
[6] = both sexes, human, plasma, oral, Fed, read-out: Tmax
[7] = both sexes, human, plasma, oral, Sprinkled on Applesauce, mean ± SD
[8] = both sexes, human, plasma, Fasted, mean ± SD
[9] = both sexes, human, plasma, Fed (high-fat breakfast), mean ± SD
[10] = both sexes, human, plasma, Sprinkled on Applesauce, mean ± SD

Row | half-life [1, 3] | Tmax [1, 4] | AUC(0-t) [1, 3] | half-life [1, 5] | Tmax [1, 6] | AUC(0-t) [1, 5] | half-life [1, 7] | Tmax ([1]; both sexes, human, plasma, oral, Sprinkled on Applesauce, read-out: Tmax) | AUC(0-t) [1, 7] | Cmax [1, 8] | Cmax [1, 9] | Cmax [1, 10] | T1/2 ([1]; Fed, mean ± SD) | Tmax ([1]; Sprinkled on Applesauce) | Structure (SMILES) | plasma half-life ([2]; orally administered with CD) | plasma half-life ([2]; orally administered without CD)
1 | 3.9 ± 0.56 h | 3 h | 2180 ± 906 ng·h/mL | 3.86 ± 0.78 h | 4 h | 751 ± 205 ng·h/mL | 3.95 ± 0.67 h | 2.5 h | 1910 ± 618 ng·h/mL | 404 ± 157 ng/mL | 141 ± 41.1 ng/mL | 339 ± 91.8 ng/mL | – | – | C[C@@](Cc1ccc(O)c(O)c1)(NN)C(=O)O [Carbidopa] | – | –
2 | 2 ± 0.3 h | 2 h | 9120 ± 2150 ng·h/mL | – | 4 h | 10600 ± 1430 ng·h/mL | 2.02 ± 0.31 h | – | 8330 ± 1960 ng·h/mL | 1830 ± 385 ng/mL | 2190 ± 473 ng/mL | 1630 ± 409 ng/mL | 1.79 ± 0.3 h | 0.5 (0.5-5.0) h | N[C@@H](Cc1ccc(O)c(O)c1)C(=O)O [LD, levodopa] | about 1.5 hours | about 50 minutes
